Measured values reported in ChEMBL document CHEMBL1201862, “PubChem BioAssay data set” (2004).
One block for each compound: values may come before it. Active and inactive are the calls of the source.

Experiments:
Format in all cases: functional
Vero = Vero cell cytotoxicity, cytotoxicity control for flavivirus capping enzyme inhibitors (AID 588742); conditions: Chlorocebus sabaeus
Genome polyprotein = Genome polyprotein (dengue virus type 2, UniProt P29990); assay: Dengue-2 NS5 methyltransferase inhibitors, primary screen, biochemical, confirmation dose response (AID 588689)
[1] = target: Sphingosine 1-phosphate receptor 1 (Homo sapiens, UniProt P21453);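 note: Tango beta-arrestin reporter U2OS cells stimulated with S1P near its EC80; inhibitor potency meaning antagonism of receptor activation by the natural agonist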
Ephrin type-A receptor 4 = Ephrin type-A receptor 4 (Mus musculus, UniProt Q03137); assay: inhibitors of EphA4 binding to KYL peptide, primary screen, biochemical, colorimetric, mouse EphA4 (AID 689)
[2] = target: Calcium/calmodulin-dependent protein kinase type 1 (Homo sapiens, UniProt Q14012)
[3] = target: Cyclin-dependent kinase 1 (Homo sapiens, UniProt P06493);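 note: Kinome-wide panel profiling, with the target listed as panel member CDC2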
[4] = target: Casein kinase I isoform alpha (Homo sapiens, UniProt P48729)
[5] = target: cAMP-dependent protein kinase catalytic subunit alpha (Homo sapiens, UniProt P17612)
[6] = target: Protein kinase C iota type (Homo sapiens, UniProt P41743);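 note: measured within a kinome-wide kinase panel, PRKCI as panel member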
[7] = target: Tyrosine-protein kinase Blk (Homo sapiens, UniProt P51451);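 note: obtained as one member of a kinome-wide kinase assay panel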
[8] = target: BDNF/NT-3 growth factors receptor (Homo sapiens, UniProt Q16620);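 note: NTRK2 measured as one member of a broad kinome-wide kinase profiling panel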
[9] = target: Dual specificity tyrosine-phosphorylation-regulated kinase 1A (Homo sapiens, UniProt Q13627);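 note: measured against DYRK1A as one member of a broad kinome profiling panel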
[10] = target: Tyrosine-protein kinase Srms (Homo sapiens, UniProt Q9H3Y6);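 note: SRMS measured as one member of a kinome-wide kinase profiling panel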
[11] = target: Vascular endothelial growth factor receptor 3 (Homo sapiens, UniProt P35916);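 note: value from a kinome-wide profiling panel, with FLT4 as the panel member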
[12] = target: Homeodomain-interacting protein kinase 2 (Homo sapiens, UniProt Q9H2X6);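 note: measured within a kinome-wide kinase profiling panel, HIPK2 being one panel member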
[13] = target: Megakaryocyte-associated tyrosine-protein kinase (Homo sapiens, UniProt P42679);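 note: affinity measured as one member of a kinase panel (Navigating the Kinome) against MATK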
Focal adhesion kinase 1 = Focal adhesion kinase 1 (Homo sapiens, UniProt Q05397);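 note: measured as one member of a kinome panel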
[14] = target: Tyrosine-protein kinase Fyn (Homo sapiens, UniProt P06241)
[15] = target: MAP/microtubule affinity-regulating kinase 3 (Homo sapiens, UniProt P27448);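 note: MARK3 affinity measured as one member of a kinome panel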
[16] = target: cGMP-dependent protein kinase 1 (Homo sapiens, UniProt Q13976);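 note: value from a kinome panel screen with PRKG1 as the panel member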
[17] = target: STE20-like serine/threonine-protein kinase (Homo sapiens, UniProt Q9H2G2)
[18] = target: Testis-specific serine/threonine-protein kinase 2 (Homo sapiens, UniProt Q96PF2);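 note: part of the Navigating the Kinome panel, target entry STK22B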
[19] = target: Mitogen-activated protein kinase 12 (Homo sapiens, UniProt P53778);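 note: measured as one member of a kinome-wide kinase profiling panel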
[20] = target: Fibroblast growth factor receptor 3 (Homo sapiens, UniProt P22607)
[21] = growth suppression of PTEN-null colon cells, dose response, cell-based, HCT116 PTEN knockout (AID 1047);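 note: HCT116 colon tumor cells with PTEN knocked out; cells exposed to compound for 60 hours before readout; potency for loss of cell viability measured by luminescence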
BJ = assay: cytotoxicity toward BJ-TERT fibroblasts, dose response, cell-based, RAS-independent, luminescence (AID 1933); conditions: Homo sapiens
[22] = target: C-C chemokine receptor type 6 (Homo sapiens, UniProt P51684); assay: CCR6 receptor antagonists, dose response, cell-based, luminescent beta-arrestin readout (AID 504728)
[23] = cytotoxicity toward DRD oncogenic fibroblasts, dose response, cell-based, non-viral oncogenic, luminescence (AID 1934); conditions: Homo sapiens

Genome polyprotein, sequence (P29990 2492-3391 limits assumed): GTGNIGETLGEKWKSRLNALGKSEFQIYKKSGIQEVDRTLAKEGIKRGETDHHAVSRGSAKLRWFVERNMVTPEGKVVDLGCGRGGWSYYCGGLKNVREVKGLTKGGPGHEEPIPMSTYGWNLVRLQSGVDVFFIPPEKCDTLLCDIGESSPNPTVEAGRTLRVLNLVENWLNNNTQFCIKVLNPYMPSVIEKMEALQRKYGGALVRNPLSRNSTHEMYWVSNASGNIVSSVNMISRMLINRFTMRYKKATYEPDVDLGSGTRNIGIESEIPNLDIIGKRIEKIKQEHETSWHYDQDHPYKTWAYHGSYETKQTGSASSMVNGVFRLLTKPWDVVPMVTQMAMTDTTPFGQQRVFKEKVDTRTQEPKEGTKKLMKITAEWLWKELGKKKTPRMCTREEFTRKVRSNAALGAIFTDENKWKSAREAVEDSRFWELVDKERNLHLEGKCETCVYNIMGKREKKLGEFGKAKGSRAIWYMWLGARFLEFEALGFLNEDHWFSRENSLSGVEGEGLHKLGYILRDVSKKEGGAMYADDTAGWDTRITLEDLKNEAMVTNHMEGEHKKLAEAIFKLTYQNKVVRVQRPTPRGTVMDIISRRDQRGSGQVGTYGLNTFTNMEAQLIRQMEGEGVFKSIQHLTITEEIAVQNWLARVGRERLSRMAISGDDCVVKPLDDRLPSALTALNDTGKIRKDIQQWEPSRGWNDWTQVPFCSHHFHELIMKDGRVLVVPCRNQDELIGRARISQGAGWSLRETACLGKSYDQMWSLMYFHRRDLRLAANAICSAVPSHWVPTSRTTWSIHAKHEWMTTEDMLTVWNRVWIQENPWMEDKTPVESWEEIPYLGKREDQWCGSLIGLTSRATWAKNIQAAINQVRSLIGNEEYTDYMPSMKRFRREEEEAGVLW
Sphingosine 1-phosphate receptor 1, sequence (P21453 whole entry): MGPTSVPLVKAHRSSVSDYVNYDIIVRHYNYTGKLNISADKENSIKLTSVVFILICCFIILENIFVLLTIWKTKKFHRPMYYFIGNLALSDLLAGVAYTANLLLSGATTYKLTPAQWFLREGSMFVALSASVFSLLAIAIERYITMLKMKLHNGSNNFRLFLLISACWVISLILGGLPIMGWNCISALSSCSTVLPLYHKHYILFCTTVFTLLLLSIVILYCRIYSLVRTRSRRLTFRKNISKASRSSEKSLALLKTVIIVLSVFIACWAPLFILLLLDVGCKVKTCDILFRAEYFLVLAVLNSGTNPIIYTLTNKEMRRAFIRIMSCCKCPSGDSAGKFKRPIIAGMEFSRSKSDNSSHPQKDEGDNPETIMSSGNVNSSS
Fibroblast growth factor receptor 3, sequence (P22607 whole entry): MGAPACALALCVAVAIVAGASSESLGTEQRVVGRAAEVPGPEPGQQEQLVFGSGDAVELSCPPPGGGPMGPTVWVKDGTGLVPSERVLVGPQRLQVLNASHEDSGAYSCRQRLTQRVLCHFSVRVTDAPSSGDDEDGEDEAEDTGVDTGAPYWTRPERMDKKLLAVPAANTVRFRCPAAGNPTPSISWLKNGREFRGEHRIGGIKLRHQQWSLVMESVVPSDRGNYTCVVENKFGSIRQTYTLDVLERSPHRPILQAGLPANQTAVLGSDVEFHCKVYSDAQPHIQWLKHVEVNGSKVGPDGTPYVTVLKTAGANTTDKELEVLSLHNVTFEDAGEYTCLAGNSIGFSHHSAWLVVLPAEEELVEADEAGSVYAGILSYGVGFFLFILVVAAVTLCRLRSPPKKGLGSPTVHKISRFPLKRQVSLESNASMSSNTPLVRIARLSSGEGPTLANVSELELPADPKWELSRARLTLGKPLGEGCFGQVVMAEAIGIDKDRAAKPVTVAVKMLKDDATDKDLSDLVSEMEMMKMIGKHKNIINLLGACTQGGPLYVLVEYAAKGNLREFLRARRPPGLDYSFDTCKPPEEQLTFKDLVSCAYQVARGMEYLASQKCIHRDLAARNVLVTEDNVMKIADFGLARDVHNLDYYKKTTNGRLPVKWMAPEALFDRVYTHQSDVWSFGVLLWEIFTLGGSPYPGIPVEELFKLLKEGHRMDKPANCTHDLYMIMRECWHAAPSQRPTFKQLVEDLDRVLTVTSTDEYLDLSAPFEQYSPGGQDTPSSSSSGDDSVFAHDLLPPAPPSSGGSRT
Homeodomain-interacting protein kinase 2, sequence (Q9H2X6 whole entry): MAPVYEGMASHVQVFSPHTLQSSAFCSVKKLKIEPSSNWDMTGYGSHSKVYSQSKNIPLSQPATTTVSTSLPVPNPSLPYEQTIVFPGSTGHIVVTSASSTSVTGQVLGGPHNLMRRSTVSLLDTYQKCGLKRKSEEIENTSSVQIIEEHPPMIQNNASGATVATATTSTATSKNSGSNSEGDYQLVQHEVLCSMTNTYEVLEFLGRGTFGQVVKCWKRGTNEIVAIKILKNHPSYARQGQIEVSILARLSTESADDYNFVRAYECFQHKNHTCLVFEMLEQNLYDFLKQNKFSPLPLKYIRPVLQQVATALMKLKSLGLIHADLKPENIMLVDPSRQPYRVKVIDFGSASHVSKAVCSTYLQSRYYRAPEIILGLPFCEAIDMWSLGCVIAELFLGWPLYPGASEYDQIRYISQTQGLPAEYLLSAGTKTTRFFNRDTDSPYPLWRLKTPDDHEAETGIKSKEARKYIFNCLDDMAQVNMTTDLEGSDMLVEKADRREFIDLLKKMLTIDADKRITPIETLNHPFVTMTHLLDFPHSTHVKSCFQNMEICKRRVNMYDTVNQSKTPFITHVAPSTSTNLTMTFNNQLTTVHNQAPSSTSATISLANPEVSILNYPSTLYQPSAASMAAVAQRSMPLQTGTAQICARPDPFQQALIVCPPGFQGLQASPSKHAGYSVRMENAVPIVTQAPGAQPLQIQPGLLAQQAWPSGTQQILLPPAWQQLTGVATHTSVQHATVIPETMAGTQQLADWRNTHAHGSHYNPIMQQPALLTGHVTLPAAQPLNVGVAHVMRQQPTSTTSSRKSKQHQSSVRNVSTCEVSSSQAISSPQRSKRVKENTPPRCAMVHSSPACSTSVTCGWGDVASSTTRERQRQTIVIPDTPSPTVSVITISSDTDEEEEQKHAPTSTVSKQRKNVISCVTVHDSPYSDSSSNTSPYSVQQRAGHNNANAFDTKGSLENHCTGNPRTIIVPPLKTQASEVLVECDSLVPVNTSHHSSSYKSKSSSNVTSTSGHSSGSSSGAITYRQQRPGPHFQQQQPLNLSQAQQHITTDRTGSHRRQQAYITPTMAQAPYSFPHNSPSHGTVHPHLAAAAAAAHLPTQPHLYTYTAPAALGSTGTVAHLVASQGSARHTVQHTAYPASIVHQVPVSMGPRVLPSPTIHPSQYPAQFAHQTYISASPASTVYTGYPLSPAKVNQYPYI
Tyrosine-protein kinase Blk, sequence (P51451 whole entry): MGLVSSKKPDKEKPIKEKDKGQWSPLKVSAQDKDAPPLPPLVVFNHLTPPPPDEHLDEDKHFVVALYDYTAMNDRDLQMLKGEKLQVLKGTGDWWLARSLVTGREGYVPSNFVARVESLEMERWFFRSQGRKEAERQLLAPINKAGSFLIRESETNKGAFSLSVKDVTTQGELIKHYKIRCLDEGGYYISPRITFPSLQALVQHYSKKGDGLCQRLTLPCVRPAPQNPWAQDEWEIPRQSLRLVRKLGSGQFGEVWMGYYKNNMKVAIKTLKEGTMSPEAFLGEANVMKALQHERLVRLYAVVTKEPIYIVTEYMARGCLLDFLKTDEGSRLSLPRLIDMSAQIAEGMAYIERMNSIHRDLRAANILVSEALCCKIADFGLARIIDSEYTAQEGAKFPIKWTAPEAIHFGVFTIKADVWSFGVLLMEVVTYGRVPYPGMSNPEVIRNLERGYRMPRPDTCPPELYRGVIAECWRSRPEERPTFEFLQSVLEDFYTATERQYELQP
STE20-like serine/threonine-protein kinase, sequence (Q9H2G2 whole entry): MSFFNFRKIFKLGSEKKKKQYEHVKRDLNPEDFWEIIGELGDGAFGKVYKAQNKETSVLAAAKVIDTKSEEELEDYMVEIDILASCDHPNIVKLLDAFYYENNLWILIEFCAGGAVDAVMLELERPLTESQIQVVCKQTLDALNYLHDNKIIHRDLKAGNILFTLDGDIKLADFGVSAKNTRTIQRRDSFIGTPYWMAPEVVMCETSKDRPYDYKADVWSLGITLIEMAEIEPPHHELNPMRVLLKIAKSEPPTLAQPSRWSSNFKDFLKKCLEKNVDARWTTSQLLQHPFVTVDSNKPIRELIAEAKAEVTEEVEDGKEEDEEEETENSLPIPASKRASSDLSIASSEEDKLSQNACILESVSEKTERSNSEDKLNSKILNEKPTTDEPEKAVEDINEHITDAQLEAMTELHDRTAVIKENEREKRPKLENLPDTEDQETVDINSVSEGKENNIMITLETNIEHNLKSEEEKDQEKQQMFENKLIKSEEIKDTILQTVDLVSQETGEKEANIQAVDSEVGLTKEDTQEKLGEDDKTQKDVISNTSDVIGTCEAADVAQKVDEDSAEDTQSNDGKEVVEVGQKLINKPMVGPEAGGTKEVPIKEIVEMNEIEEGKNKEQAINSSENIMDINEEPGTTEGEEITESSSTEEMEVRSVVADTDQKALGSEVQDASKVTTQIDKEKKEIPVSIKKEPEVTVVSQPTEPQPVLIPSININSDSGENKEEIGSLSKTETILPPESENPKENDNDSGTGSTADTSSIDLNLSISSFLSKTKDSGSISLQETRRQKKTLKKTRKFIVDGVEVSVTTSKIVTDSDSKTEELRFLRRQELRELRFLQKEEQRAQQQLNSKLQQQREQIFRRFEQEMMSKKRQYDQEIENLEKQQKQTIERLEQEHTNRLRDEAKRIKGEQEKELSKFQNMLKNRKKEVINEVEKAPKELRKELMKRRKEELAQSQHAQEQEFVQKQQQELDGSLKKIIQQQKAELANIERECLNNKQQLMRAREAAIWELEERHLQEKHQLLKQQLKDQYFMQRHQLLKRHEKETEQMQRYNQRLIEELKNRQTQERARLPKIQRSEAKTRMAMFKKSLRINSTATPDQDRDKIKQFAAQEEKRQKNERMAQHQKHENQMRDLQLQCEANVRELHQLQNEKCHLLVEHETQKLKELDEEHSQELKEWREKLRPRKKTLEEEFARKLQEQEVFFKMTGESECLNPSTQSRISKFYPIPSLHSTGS

Structure (SMILES): CC(=O)N(C1=C(Cl)C(=O)c2ccccc2C1=O)C1CCCCC1
- CC50 (Vero): 22.4 µM (active)
- IC50 (Genome polyprotein): 38.3 µM (active)
- IC50 [1]: 9.5 µM (active)

Structure (SMILES): Oc1ccc(-c2cn3c(n2)SCC3)cc1O
- IC50 (Ephrin type-A receptor 4): 42.3 µM (active)

- Ki [2]: > 1.26 µM (inactive)
- Ki [3]: 20 nM (active)
- Ki [4]: 794 nM (active)
- Ki [5]: 3.98 µM (active)
- Ki [6]: > 5.01 µM (inactive)
- Ki [7]: 158 nM (active)
- Ki [8]: 79.4 nM (active)
- Ki [9]: 7.94 nM (active)
- Ki [10]: > 1.58 µM (inactive)
- Ki [11]: 3.16 nM (active)
- Ki [12]: 126 nM (active)
- Ki [13]: 200 nM (active)
- Ki (Focal adhesion kinase 1): > 1.58 µM (inactive)
- Ki [14]: 200 nM (active)
- Ki [15]: 39.8 nM (active)
- Ki [16]: 126 nM (active)
- Ki [17]: 126 nM (active)
- Ki [18]: > 1.58 µM (inactive)
- Ki [19]: 3.16 µM (active)
- Ki [20]: 12.6 nM (active)
Structure (SMILES): O=C1Nc2ccc3ncsc3c2C1=CNc1ccc(S(=O)(=O)Nc2ccccn2)cc1

Structure (SMILES): Cc1ccc(NC2=C/C(=N\S(=O)(=O)c3cccs3)c3ccccc3C2=O)c(C)c1
- EC50 [21]: 1.1 µM (active)
- EC50 (BJ): 2.51 µM (active)
- IC50 [22]: > 66.6 µM (inactive)
- EC50 [23]: 5.14 µM (active)
